# According to patent US9187486B2 (AMGEN INC., priority 2011, dated 2015):
# Where two headings read alike, the source gives them in different places.
# Legend:
# [1] = tested on: KMS-12-BM myeloma cell line; experiment: Pim cell assay: phospho-BAD (S112) and total BAD in KMS-12-BM cells; type: cell-based; settings: 1 hour and 50 minutes incubation
# Description: The KMS-12-BM myeloma cell line was used to determine the in vitro cellular inhibition of Pim kinases. Disruption of Pim signaling by Pim inhibitors was determined by measuring the levels of phospho-BAD (S112) and total BAD. […] The cells were then incubated overnight at 37° C., 5% CO2. […] In addition to the 10-point dosing curve of the test compound, DMSO alone was run as a control. This dilution in DMSO was then diluted again into cell growth medium. Aliquots (11.1 uL) of the compound diluted in growth medium were then transferred to the appropriate wells of the 96-well plates containing cells to yield a final DMSO concentration of 0.3%. The cell plates were then incubated with compound for 1 hour and 50 minutes at 37° C., 5% CO2. After the 1 hour and 50 min incubation, the cell plates were spun at 1000 RPM for 10 minutes and the compound-containing medium was removed. […] The cell plates containing lysis buffer were then immediately stored at −70° C. These prepared lysates were then assayed for phospho-(S112) and total-BAD according to the manufacturer's protocol (Meso Scale Diagnostics, Cat # K15103D-3). The plates were read on the MSD Sector Imager 6000, and results were calculated according to the assay protocol: ((% Phosphoprotein=((2×Phospho signal)/(Phospho signal+Total signal))×100)).
# Pim-1 = Pim-1 (Homo sapiens (Human), UniProt P11309); experiment: Pim enzyme assay (HTRF, phosphorylation of biotinylated-BAD (S112) peptide), Pim-1; type: biochemical
# Pim-1, sequence (P11309 whole entry): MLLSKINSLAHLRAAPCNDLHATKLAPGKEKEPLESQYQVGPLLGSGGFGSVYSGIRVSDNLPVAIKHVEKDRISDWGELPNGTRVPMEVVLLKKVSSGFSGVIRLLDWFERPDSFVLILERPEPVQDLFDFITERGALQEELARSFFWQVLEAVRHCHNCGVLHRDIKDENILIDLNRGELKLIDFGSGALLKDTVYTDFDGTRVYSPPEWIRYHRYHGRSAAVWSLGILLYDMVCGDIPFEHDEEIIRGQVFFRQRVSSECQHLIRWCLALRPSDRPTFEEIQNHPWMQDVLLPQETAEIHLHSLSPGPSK
# Description: (§1) Full-length human cDNAs encoding Pim-1 (MGC ID 3913552) or Pim-2 (IMAGE ID 5092935) were purchased from Invitrogen, Carlsbad, Calif. These cDNAs were used as templates in PCR reactions to produce full-length DNA clones of the PIMs. Oligonucleotide PCR primers for Pim-1 were 5′-[…]-3′ and 5′-[…]-3′. Oligonucleotide PCR primers for Pim-2 were 5′-[…]-3′ and 5′-[…]-3′. PCR products were digested with BclI and EcoRI for Pim-1 and BamHI and EcoRI for Pim-2 and ligated into a modified baculovirus transfer vector (pFastBac 1) cleaved with BamHI and EcoRI. For bacterial expression, the same cleaved PCR products encoding Pim-1 or Pim-2 were ligated into a modified E. coli expression vector pET28(a) cleaved with BamHI and EcoRI. Amino-terminal hexahistidine tags followed by a thrombin cleavage site were previously added to the vectors using standard methods of molecular biology. Recombinant baculoviruses expressing Pim-1 or Pim-2 were made using standard methods (Fastbac manual, Invitrogen, Carlsbad, Calif.). Infection of Sf9 cells was done at an m.o.i. of greater than 5 for 24-48 h. Cells were harvested by centrifugation and frozen at −80 C. For E. coli expression, cells carrying pET28-His6-Th-Pim-1 or pET28-His6-Th-Pim-2 were picked from a single colony and grown o/n in LB media. The o/n culture was used to inoculate a 2 liter flask with 500 mL media. This was grown o/n and used to inoculate 15-20 liters of Terrific Broth in a New Brunswick Scientific fermentor. The E. coli were grown at 37° C. to and OD600>1.6. The temperature was dropped to 18° C. and o/n expression was induced with 0.5 mM IPTG. Cells were harvested by centrifugation and frozen at −80° C.
# (§2) The frozen cell pellets were thawed by stirring in chilled lysis buffer (0.05 M HEPES, pH 8.0, 0.25 M NaCl, 0.01 M 2-mercaptoethanol, 10% (w/v) glycerol, 0.5% (v/v) protease inhibitor cocktail (Sigma P-8340) at a ratio of 1 L/200 g cells until homogeneous. The thawed suspension was applied to a microfluidizer at 10,000 PSI to disrupt the cells and the whole lysates were clarified by centrifugation at 50,000×g for 90 min, 4° C. Imidazole was added to the clarified lysate to a final concentration of 2.5 mM and the lysate was mixed with 10 mL of Talon resin (Clontech) and the slurry rocked gently overnight at 4° C. The slurry was centrifuged at 1,000×g for 5 min, the supernatant decanted, and the resin suspended in 40 mL of lysis wash buffer (lysis buffer at 0.75 M NaCl). This step was repeated 3× and the resin was transferred to a 2.5 cm glass column. Ten column volumes of wash buffer (0.05 M HEPES, pH 8.0, 0.1 M NaCl, 0.01 M 2-mercaptoethanol, 10% (w/v) glycerol) were applied to the resin followed by 10 column volumes of elution buffer (0.05 M HEPES, pH 8.0, 0.25 M NaCl, 0.01 M 2-mercaptoethanol, 10% (w/v) glycerol, 0.1 M imidazole). Fractions were analyzed by SDS-PAGE and those containing the protein of interest were pooled and concentrated. The concentrated protein was applied to an Amersham Superdex 75 (XK 26/60) column equilibrated in 0.025 M Tris-HCl, pH 7.5, 0.1 M NaCl, 0.01 M 2-mercaptoethanol, 10% (w/v) glycerol. […] Fractions containing the monomeric protein of interest were pooled, concentrated to ˜2 mg/mL, and stored at −80° C.
# (§3) The phosphorylation of biotinylated-BAD (S112) peptide by full length recombinant Pim-1, Pim-2, or Pim-3 protein was detected with streptavidin:Allophycocyanin (APC) conjugate and a europium (Eu) labeled antibody directed against phosphorylated-BAD (S112). Excitation of Eu by a high energy laser light (337 nm) leads to a transfer of energy to the APC molecule, and results in an emission at 665 nm. The fluorescence is directly proportional to the amount of phosphorylated BAD peptide present in the reaction.
# Pim-2 = Pim-2 (Homo sapiens (Human), UniProt Q9P1W9); experiment: Pim enzyme assay (HTRF, phosphorylation of biotinylated-BAD (S112) peptide), Pim-2; type: biochemical
# Pim-2, sequence (Q9P1W9 whole entry): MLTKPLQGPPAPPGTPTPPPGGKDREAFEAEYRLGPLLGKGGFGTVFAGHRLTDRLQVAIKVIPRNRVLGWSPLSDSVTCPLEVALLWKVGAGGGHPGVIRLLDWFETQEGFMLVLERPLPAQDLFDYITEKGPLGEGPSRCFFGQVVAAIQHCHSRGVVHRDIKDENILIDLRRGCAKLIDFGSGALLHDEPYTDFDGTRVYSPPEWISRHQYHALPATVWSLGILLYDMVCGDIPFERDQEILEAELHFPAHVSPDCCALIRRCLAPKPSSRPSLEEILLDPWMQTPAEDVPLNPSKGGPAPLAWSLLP
# Description: as §1, §2, §3
# [2] = Homo sapiens, KMS-12-BM, read-out: KMS-12-BM IC50 IP
# [3] = full length recombinant Pim-1, biotinylated-BAD (S112) peptide, HTRF, 96-well, read-out: Pim-1 IC50 IP
# [4] = full length recombinant Pim-2, biotinylated-BAD (S112) peptide, HTRF, 96-well, read-out: Pim-2 IC50 IP
# [5] = tris(2,2,2-trifluoroacetate), read-out: KMS-12-BM IC50 IP
# [6] = bis(2,2,2-trifluoroacetate), read-out: KMS-12-BM IC50 IP
# [7] = Homo sapiens, KMS-12-BM, read-out: KMS12_Cell_IC50
# [8] = full length recombinant Pim-1, biotinylated-BAD (S112) peptide, HTRF, read-out: Pim_1_IC50
SMILES,"IC50 [1, 2]",IC50 (Pim-1; [3]),IC50 (Pim-2; [4]),"IC50 [1, 5]",further results
"O[C@H]1CCN(c2ccncc2Nc2ncc3ccc(-c4c(F)cccc4F)nn23)C[C@@H]1O (mixture of isomers) [Example 25, (3S,4S)-1-(3-((2-(2,6-difluorophenyl)imidazo[1,5-b]pyridazin-7-yl)amino)-4-pyridinyl)-3,4-piperidinediol and (3R,4R)-1-(3-((2-(2,6-difluorophenyl)imidazo[1,5-b]pyridazin-7-yl)amino)-4-pyridinyl)-3,4-piperidinediol (1/1)]",–,–,–,–,IC50 ([1]; read-out: KMS12_Cell_IC50): 777 nM; IC50 (Pim-1; read-out: Pim_1_IC50): 2 nM; IC50 (Pim-2; read-out: Pim2_IC50): 8 nM
"N[C@H]1C[C@@H](C(F)(F)F)CN(c2ccncc2Nc2ncc3ccc(-c4c(F)cccc4F)nn23)C1 (racemic) [Example 60, rac-N-(4-((cis)-3-amino-5-(trifluoromethyl)piperidin-1-yl)pyridin-3-yl)-2-(2,6-difluorophenyl)imidazo[1,5-b]pyridazin-7-amine bis(2,2,2-trifluoroacetate)]",116 nM,0.1 nM,0.3 nM,–,–
"N[C@H]1C[C@H](C(F)(F)F)CN(c2ccncc2Nc2ncc3ccc(-c4c(F)cccc4F)nn23)C1 (racemic) [Example 61, rac-N-(4-((trans)-3-amino-5-(trifluoromethyl)piperidin-1-yl)pyridin-3-yl)-2-(2,6-difluorophenyl)imidazo[1,5-b]pyridazin-7-amine bis(2,2,2-trifluoroacetate)]",1630 nM,0.4 nM,1.4 nM,–,–
"C[C@@H]1C[C@H](N)CN(c2ccncc2Nc2ncc3ccc(-c4ccccn4)nn23)C1 (relative stereo) [Example 63, N-(4-((cis)-3-amino-5-methylpiperidin-1-yl)pyridin-3-yl)-2-(pyridin-2-yl)imidazo[1,5-b]pyridazin-7-amine]",235 nM,0.3 nM,1.3 nM,–,–
"O[C@@H]1CCN(c2ccncc2Nc2ncc3ccc(-c4c(F)cccc4F)nn23)C[C@H]1O (single isomer, unassigned) [Example 35, 1-(3-((2-(2,6-difluorophenyl)imidazo[1,5-b]pyridazin-7-yl)amino)-4-pyridinyl)-3,4-trans-piperidinediol]",667 nM,2.7 nM,8.8 nM,–,–
"C[C@@H]1C[C@H](N)CN(c2ccncc2Nc2ncc3ccc(-c4ccccc4F)nn23)C1 (single isomer, unassigned) [Example 46, N-(4-((cis)-3-amino-5-methylpiperidin-1-yl)pyridin-3-yl)-2-(2-fluorophenyl)imidazo[1,5-b]pyridazin-7-amine tris(2,2,2-trifluoroacetate)]",–,< 0.1 nM,0.1 nM,52.1 nM,–
"C[C@@H]1C[C@H](N)CN(c2ccncc2Nc2ncc3ccc(-c4ccccc4F)nn23)C1 (single isomer, unassigned) [Example 47, N-(4-((cis)-3-amino-5-methylpiperidin-1-yl)pyridin-3-yl)-2-(2-fluorophenyl)imidazo[1,5-b]pyridazin-7-amine tris(2,2,2-trifluoroacetate)]",–,7.7 nM,54.2 nM,10200 nM,–
"C[C@H]1CCN(c2ccncc2Nc2ncc3ccc(-c4c(F)cccc4F)nn23)C[C@H]1N (single isomer, unassigned) [Example 98, N-(4-((cis)-3-amino-4-methylpiperidin-1-yl)pyridin-3-yl)-2-(2,6-difluorophenyl)imidazo[1,5-b]pyridazin-7-amine bis(2,2,2-trifluoroacetate)]",–,–,–,–,"IC50 [1, 6]: 12100 nM; IC50 (Pim-1; read-out: Pim-1 IC50 IP): 2.8 nM; IC50 (Pim-2; read-out: Pim-2 IC50 IP): 15.7 nM"
"C[C@H]1CCN(c2ccncc2Nc2ncc3ccc(-c4c(F)cccc4F)nn23)C[C@H]1N (single isomer, unassigned) [Example 99, N-(4-((cis)-3-amino-4-methylpiperidin-1-yl)pyridin-3-yl)-2-(2,6-difluorophenyl)imidazo[1,5-b]pyridazin-7-amine bis(2,2,2-trifluoroacetate)]",–,0.3 nM,1.6 nM,–,"IC50 [1, 6]: 2700 nM"
"C[C@@H]1CCN(c2ccncc2Nc2ncc3ccc(-c4c(F)cccc4F)nn23)C[C@H]1N (single isomer, unassigned) [Example 100, N-(4-((trans)-3-amino-4-methylpiperidin-1-yl)pyridin-3-yl)-2-(2,6-difluorophenyl)imidazo[1,5-b]pyridazin-7-amine tris(2,2,2-trifluoroacetate)]",–,–,–,77.5 nM,IC50 (Pim-1; read-out: Pim-1 IC50 IP): < 0.1 nM; IC50 (Pim-2; read-out: Pim-2 IC50 IP): 0.2 nM
"C[C@@H]1CCN(c2ccncc2Nc2ncc3ccc(-c4c(F)cccc4F)nn23)C[C@H]1N (single isomer, unassigned) [Example 101, N-(4-((trans)-3-amino-4-methylpiperidin-1-yl)pyridin-3-yl)-2-(2,6-difluorophenyl)imidazo[1,5-b]pyridazin-7-amine tris(2,2,2-trifluoroacetate)]",–,7.6 nM,32.4 nM,6930 nM,–
"N[C@H]1CCCN(c2ccncc2Nc2ncc3ccc(-c4c(F)cccc4F)nn23)C1 [Example 1, N-(4-((3S)-3-amino-1-piperidinyl)-3-pyridinyl)-2-(2,6-difluorophenyl)imidazo[1,5-b]pyridazin-7-amine tris(2,2,2-trifluoroacetate)]",–,–,–,–,"IC50 [1, 7]: 428 nM; IC50 (Pim-1; [8]): 0.08 nM; IC50 (Pim-2; read-out: Pim2_IC50): 0.5 nM"
"Fc1cccc(F)c1-c1ccc2cnc(Nc3cnccc3N3CCNCC3)n2n1 [Example 2, 2-(2,6-difluorophenyl)-N-(4-(1-piperazinyl)-3-pyridinyl)imidazo[1,5-b]pyridazin-7-amine]",–,–,–,–,"IC50 [1, 7]: > 31000 nM; IC50 (Pim-1; [8]): 14 nM; IC50 (Pim-2; full length recombinant Pim-2, biotinylated-BAD (S112) peptide, HTRF, read-out: Pim2_IC50): 126 nM"
